Test results taken from PubChem BioAssay (NCI).
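Cells were grown in 96-well plates and exposed to each compound for 48 hours at five concentrations; endpoints were interpolated linearly between bracketing concentrations, or set to the highest concentration if not reached. Abbreviation: GI50, concentration required for 50% inhibition of growth. TGI denotes the concentration required for complete inhibition of growth.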

What was measured:
Experiment in all cases: growth of human tumour cells (NCI), 48 h
SK-MEL-5 melanoma = system: SK-MEL-5 melanoma
OVCAR-4 ovarian = system: OVCAR-4 ovarian
MDA-MB-435 = system: MDA-MB-435
SK-MEL-28 melanoma = system: SK-MEL-28 melanoma
SF-295 CNS = system: SF-295 CNS
K-562 leukemia = system: K-562 leukemia
SNB-19 CNS = system: SNB-19 CNS
OVCAR-3 ovarian = system: OVCAR-3 ovarian
KM12 colon = system: KM12 colon
T-47D breast = system: T-47D breast
NCI-H460 lung = system: NCI-H460 lung
A549 NSCLC = system: A549 NSCLC
HCT-116 colon = system: HCT-116 colon
SW-620 colon = system: SW-620 colon
IGROV1 ovarian = system: IGROV1 ovarian
PC-3 prostate = system: PC-3 prostate
MCF7 breast = system: MCF7 breast
HS 578T breast = system: HS 578T breast
NCI/ADR-RES ovarian = system: NCI/ADR-RES ovarian
SK-MEL-2 melanoma = system: SK-MEL-2 melanoma
UACC-257 melanoma = system: UACC-257 melanoma
HCT-15 colon = system: HCT-15 colon
COLO 205 colon = system: COLO 205 colon
786-0 renal = system: 786-0 renal
BT-549 breast = system: BT-549 breast
HL-60(TB) leukemia = system: HL-60(TB) leukemia
NCI-H522 lung = system: NCI-H522 lung
HT29 colon = system: HT29 colon
RXF 393 renal = system: RXF 393 renal
TK-10 renal = system: TK-10 renal
SF-539 CNS = system: SF-539 CNS
SN12C renal = system: SN12C renal
M14 melanoma = system: M14 melanoma
HOP-92 NSCLC = system: HOP-92 NSCLC
CCRF-CEM leukemia = system: CCRF-CEM leukemia
HCC-2998 colon = system: HCC-2998 colon
SNB-75 CNS = system: SNB-75 CNS
NCI-H226 lung = system: NCI-H226 lung
SF-268 CNS = system: SF-268 CNS
LOX IMVI melanoma = system: LOX IMVI melanoma
SK-OV-3 ovarian = system: SK-OV-3 ovarian
UO-31 renal = system: UO-31 renal
UACC-62 melanoma = system: UACC-62 melanoma
HOP-62 NSCLC = system: HOP-62 NSCLC
ACHN renal = system: ACHN renal
MALME-3M melanoma = system: MALME-3M melanoma
U251 CNS = system: U251 CNS
CAKI-1 renal = system: CAKI-1 renal
NCI-H23 lung = system: NCI-H23 lung
MDA-MB-231 breast = system: MDA-MB-231 breast
A498 renal = system: A498 renal
OVCAR-8 ovarian = system: OVCAR-8 ovarian
RPMI-8226 leukemia = system: RPMI-8226 leukemia
EKVX NSCLC = system: EKVX NSCLC
OVCAR-5 ovarian = system: OVCAR-5 ovarian
DU-145 prostate = system: DU-145 prostate

C=CCC(N[C@H](CO)c1ccccc1)c1cn(Cc2ccccc2Cl)c(=O)n(Cc2ccccc2Cl)c1=O (stereo partly specified)
GI50 (SK-MEL-5 melanoma): 14.6 µM
TGI (SK-MEL-5 melanoma): 30.1 µM
GI50 (OVCAR-4 ovarian): 26.6 µM
TGI (OVCAR-4 ovarian): > 100 µM
GI50 (MDA-MB-435): 15.9 µM
TGI (MDA-MB-435): 38.6 µM
GI50 (SK-MEL-28 melanoma): 19.7 µM
TGI (SK-MEL-28 melanoma): 39.5 µM
GI50 (SF-295 CNS): 8.13 µM
TGI (SF-295 CNS): 48 µM
GI50 (K-562 leukemia): 6.78 µM
TGI (K-562 leukemia): 40.7 µM
GI50 (SNB-19 CNS): 35.7 µM
TGI (SNB-19 CNS): > 100 µM
GI50 (OVCAR-3 ovarian): 8.8 µM
TGI (OVCAR-3 ovarian): 43.8 µM
GI50 (KM12 colon): 17.5 µM
TGI (KM12 colon): 73.3 µM
GI50 (T-47D breast): > 100 µM
TGI (T-47D breast): > 100 µM
GI50 (NCI-H460 lung): 18.3 µM
TGI (NCI-H460 lung): > 100 µM
GI50 (A549 NSCLC): 15.3 µM
TGI (A549 NSCLC): > 100 µM
GI50 (HCT-116 colon): 6.44 µM
TGI (HCT-116 colon): 20.8 µM
GI50 (SW-620 colon): 24.3 µM
TGI (SW-620 colon): > 100 µM
GI50 (IGROV1 ovarian): 13.5 µM
TGI (IGROV1 ovarian): 66.3 µM
GI50 (PC-3 prostate): 4.03 µM
TGI (PC-3 prostate): 26.7 µM
GI50 (MCF7 breast): 16.4 µM
TGI (MCF7 breast): 68.7 µM
GI50 (HS 578T breast): 26 µM
TGI (HS 578T breast): > 100 µM
GI50 (NCI/ADR-RES ovarian): 9.26 µM
TGI (NCI/ADR-RES ovarian): > 100 µM
GI50 (SK-MEL-2 melanoma): 18.9 µM
TGI (SK-MEL-2 melanoma): 57.5 µM
GI50 (UACC-257 melanoma): 23.3 µM
TGI (UACC-257 melanoma): 53.4 µM
GI50 (HCT-15 colon): 9.27 µM
TGI (HCT-15 colon): 35.2 µM
GI50 (COLO 205 colon): 14.7 µM
TGI (COLO 205 colon): 86.8 µM
GI50 (786-0 renal): 12.7 µM
TGI (786-0 renal): 64.1 µM
TGI (BT-549 breast): 7.01 µM
GI50 (HL-60(TB) leukemia): 5.87 µM
TGI (HL-60(TB) leukemia): 34 µM
GI50 (NCI-H522 lung): 14.3 µM
TGI (NCI-H522 lung): 89.9 µM
GI50 (HT29 colon): 11 µM
TGI (HT29 colon): > 100 µM
GI50 (RXF 393 renal): 8.48 µM
TGI (RXF 393 renal): 23.6 µM
GI50 (TK-10 renal): 46.6 µM
TGI (TK-10 renal): > 100 µM
GI50 (SF-539 CNS): 15 µM
TGI (SF-539 CNS): 32.5 µM
GI50 (SN12C renal): 14.6 µM
TGI (SN12C renal): 40.9 µM
GI50 (M14 melanoma): 6.19 µM
TGI (M14 melanoma): 23.1 µM
GI50 (HOP-92 NSCLC): 3.92 µM
TGI (HOP-92 NSCLC): 23.1 µM
GI50 (CCRF-CEM leukemia): 10.6 µM
TGI (CCRF-CEM leukemia): 42.5 µM
GI50 (HCC-2998 colon): 10.7 µM
TGI (HCC-2998 colon): 27.3 µM
GI50 (SNB-75 CNS): 16.6 µM
TGI (SNB-75 CNS): 64.8 µM
GI50 (NCI-H226 lung): 13.7 µM
TGI (NCI-H226 lung): 49.8 µM
GI50 (SF-268 CNS): 18.6 µM
TGI (SF-268 CNS): > 100 µM
GI50 (LOX IMVI melanoma): 6.27 µM
TGI (LOX IMVI melanoma): 19 µM
GI50 (SK-OV-3 ovarian): 63.8 µM
TGI (SK-OV-3 ovarian): > 100 µM
GI50 (UO-31 renal): 6.89 µM
TGI (UO-31 renal): > 100 µM
GI50 (UACC-62 melanoma): 7.64 µM
TGI (UACC-62 melanoma): 27.1 µM
GI50 (HOP-62 NSCLC): 12 µM
TGI (HOP-62 NSCLC): 29.9 µM
GI50 (ACHN renal): 4.78 µM
TGI (ACHN renal): 39 µM
GI50 (MALME-3M melanoma): 34.5 µM
TGI (MALME-3M melanoma): 81 µM
GI50 (U251 CNS): 11.2 µM
TGI (U251 CNS): 34 µM
GI50 (CAKI-1 renal): 4.46 µM
TGI (CAKI-1 renal): 32.2 µM
GI50 (NCI-H23 lung): 19.5 µM
TGI (NCI-H23 lung): 62.1 µM
GI50 (MDA-MB-231 breast): 3.74 µM
TGI (MDA-MB-231 breast): 21.5 µM
GI50 (A498 renal): 11 µM
TGI (A498 renal): 39.1 µM
GI50 (OVCAR-8 ovarian): 15.2 µM
TGI (OVCAR-8 ovarian): > 100 µM
GI50 (RPMI-8226 leukemia): 3.73 µM
TGI (RPMI-8226 leukemia): 12.5 µM
GI50 (EKVX NSCLC): 16.1 µM
TGI (EKVX NSCLC): 96.4 µM
GI50 (OVCAR-5 ovarian): 25.6 µM
TGI (OVCAR-5 ovarian): > 100 µM
GI50 (DU-145 prostate): 23.5 µM
TGI (DU-145 prostate): 95.5 µM
